Test [1] concerns the target T1, h-TGR5 (Homo sapiens, UniProt Q8TDU6).
T1 construct: expressed in transfected cells
T1 sequence (Q8TDU6 1-330): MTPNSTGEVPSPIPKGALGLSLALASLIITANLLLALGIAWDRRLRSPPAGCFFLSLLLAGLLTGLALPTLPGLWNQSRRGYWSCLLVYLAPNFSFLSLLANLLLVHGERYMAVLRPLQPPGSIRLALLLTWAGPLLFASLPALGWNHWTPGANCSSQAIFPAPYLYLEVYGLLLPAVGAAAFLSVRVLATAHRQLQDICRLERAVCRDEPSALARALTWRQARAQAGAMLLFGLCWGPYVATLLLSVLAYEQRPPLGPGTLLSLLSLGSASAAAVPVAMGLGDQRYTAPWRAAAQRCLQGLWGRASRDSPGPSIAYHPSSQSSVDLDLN
Briefly: TGR5 cAMP Assay using Cisbio cAMP Dynamic2 htrf kit (hTGR5CRE-luc HEK 293 cells). The class given is cell-based. The essentials: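 […], 4000 hTGR5CRE-luc HEK 293 cells per well, with 0.5 mM IBMX and d2-cAMP, were incubated 30 min at room temperature with compounds in 8-point half-log series, in quadruplicate.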

In test [2] the target is T2, human TGR5 (h-TGR5) (Homo sapiens, UniProt Q8TDU6).
T2 construct: expressed in transfected cells
T2 sequence (Q8TDU6 1-330): T1 sequence (Q8TDU6 1-330)
Briefly: TGR5/CRE-Luciferiase Assay (HEK 293 hTGR5/CRE-Luc cells). The format is cell-based. The essentials: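 HEK293 cells stably carrying hTGR5 and a CRE-luciferase reporter were exposed to serially diluted compounds (diluted in DMEM with 5% DMSO) for 6 h. Cells were then lysed in luciferase buffer, luminescence was read, and EC50 values were derived from dose-response curves.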

[3] abbreviates: h-TGR5 cAMP EC50, Table 1, read-out: cAMP (EC50).
Where [4] appears, read: h-TGR5 CRE-Luc EC50, Table 1, read-out: CRE-Luc (EC50).

The values that follow come from patent US8785488B2 (Exelixis Patent Company LLC, priority 2009, dated 2014).

Where two headings read alike, the source gives them in different places. Bounds are passed on as bounds.

One may read the EC50 as the concentration needed to bring the measured effect to its halfway point.

Take `COc1cc(C(C)(C)c2cnc(SCc3c(F)cc(-c4noc(=O)[nH]4)cc3F)n2-c2ccc(F)cc2)ccc1Cl` [3-[4-({[5-{1-[4-chloro-3-(methyloxy)phenyl]-1-methylethyl}-1-(4-fluorophenyl)-1H-imidazol-2-yl]thio}methyl)-3,5-difluorophenyl]-1,2,4-oxadiazol-5(4H)-one]: the EC50 in test [1] (setting [3]) and in test [2] (setting [4]) was less than 100 nM each time.

For the molecule `CC(C)(c1ccc(F)c(F)c1)c1cnc(SCc2c(F)cc(C(=O)O)cc2F)n1-c1ccc(F)cc1`, the figures for the EC50 in test [1] (setting [3]) and in test [2] (setting [4]) were less than 100 nM and 100 to 1000 nM, respectively.

Regarding `CCOC(=O)NS(=O)(=O)c1ccc(CSc2ncc(C(C)(C)c3ccc(Cl)c(Cl)c3)n2-c2ccc(F)c(OC)c2)c(Cl)c1` [ethyl ({3-chloro-4-[({5-[1-(3,4-dichlorophenyl)-1-methylethyl]-1-[4-fluoro-3-(methyloxy)phenyl]-1H-imidazol-2-yl}thio)methyl]phenyl}sulfonyl)carbamate], the EC50 in test [1] (setting [3]) and in test [2] (setting [4]) was 100 to 1000 nM each time.

`CC(C)(c1ccc(Cl)c(Cl)c1)c1cnc(SCc2ccc(Cl)c(S(N)(=O)=O)c2)n1-c1ccc(F)cc1` [2-chloro-5-[({5-[1-(3,4-dichlorophenyl)-1-methylethyl]-1-(4-fluorophenyl)-1H-imidazol-2-yl}thio)methyl]benzenesulfonamide]: the EC50 in test [1] (setting [3]) and in test [2] (setting [4]) was less than 100 nM throughout.

As for `COc1ccc(C(C)(C)c2cnc(SCc3c(F)cccc3Cl)n2-c2ccc(F)cc2)cc1Cl` [2-{[(2-chloro-6-fluorophenyl)methyl]thio}-5-{1-[3-chloro-4-(methyloxy)phenyl]-1-methylethyl}-1-(4-fluorophenyl)-1H-imidazole], the EC50 in test [1] (setting [3]) and in test [2] (setting [4]) was less than 100 nM in each case.

For `CC(C)(c1ccc2nccnc2c1)c1nnc(SCc2c(F)cccc2Cl)n1-c1ccc(F)cc1` [Example 45], the EC50 in test [1] (hTGR5CRE-luc HEK 293 cells, htrf cAMP, Table 2, read-out: h-TGR5 cAMP EC50 (cAMP)) is less than 100 nM; in test [2] (HEK 293 hTGR5/CRE-Luc cells, 6 hours incubation, luciferase activity, Table 2, read-out: h-TGR5CRE-Luc EC50 (CRE-Luc)), less than 100 nM.

For the molecule `COc1cc(C(C)(C)c2cnc(SCc3c(F)ccc(S(N)(=O)=O)c3F)n2-c2ccc(F)cc2)ccc1Cl` [3-({[5-{1-[4-chloro-3-(methyloxy)phenyl]-1-methylethyl}-1-(4-fluorophenyl)-1H-imidazol-2-yl]thio}methyl)-2,4-difluorobenzenesulfonamide], the EC50 in test [1] (setting [3]) and in test [2] (setting [4]) was less than 100 nM each time.

As to `COc1cc(C(C)(C)c2cnc(SCc3c(F)cc(S(=O)(=O)NCCCNC(=N)N)cc3F)n2-c2ccc(F)cc2)ccc1Cl` [N-(3-{[amino(imino)methyl]amino}propyl)-4-({[5-{1-[4-chloro-3-(methyloxy)phenyl]-1-methylethyl}-1-(4-fluorophenyl)-1H-imidazol-2-yl]thio}methyl)-3,5-difluorobenzenesulfonamide], the EC50 in test [1] (setting [3]) and in test [2] (setting [4]) was less than 100 nM in each case.

In the case of `COc1cc(C(C)(C)c2cnc(SCc3c(F)cc(C(=O)O)cc3F)n2-c2ccc(F)cc2)ccc1Cl` [4-({[5-{l-[4-chloro-3-(methyloxy)phenyl]-1-methylethyl}-1-(4-fluorophenyl)-1H-imidazol-2-yl]thio}methyl)-3,5-difluorobenzoic acid], the EC50 in test [1] (setting [3]) and in test [2] (setting [4]) was less than 100 nM each time.

As for `CC(C)(c1ccc(Cl)c(Cl)c1)c1cnc(COC2CCN(S(C)(=O)=O)CC2)n1-c1ccc(F)cc1` [4-[({5-[1-(3,4-dichlorophenyl)-1-methylethyl]-1-(4-fluorophenyl)-1H-imidazol-2-yl}methyl)oxy]-1-(methylsulfonyl)piperidine], the 50% effective concentration (EC50) fell in the range of 100 to 1000 nM in test [1] (setting [3]) and 1000 to 10000 nM in test [2] (setting [4]).

Turning to `CC(C)(c1ccc(Cl)c(Cl)c1)c1cnc(SCc2ccc(C(=O)NCCc3c[nH]cn3)cc2F)n1-c1ccc(F)cc1` [4-[({5-[1-(3,4-dichlorophenyl)-1-methylethyl]-1-(4-fluorophenyl)-1H-imidazol-2-yl}thio)methyl]-3-fluoro-N-[2-(1H-imidazol-4-yl)ethyl]benzamide], the EC50 in test [1] (setting [3]) and in test [2] (setting [4]) was 100 to 1000 nM in each case.

Turning to `COc1cc(-n2c(C(C)(C)c3ccc(S(C)(=O)=O)cc3)cnc2SCc2c(F)cc(C(=O)O)cc2F)ccc1F` [3,5-difluoro-4-{[(1-[4-fluoro-3-(methyloxy)phenyl]-5-{1-methyl-1-[4-(methylsulfonyl)phenyl]ethyl}-1H-imidazol-2-yl)thio]methyl}benzoic acid], the EC50 was less than 100 nM in test [1] (setting [3]) and 100 to 1000 nM in test [2] (setting [4]).

For the molecule `CC(C)(c1ccc(F)c(C#N)c1)c1cnc(SCc2c(F)cc(C(=O)O)cc2F)n1-c1ccc(F)cc1` [4-[({5-[1-(3-cyano-4-fluorophenyl)-1-methylethyl]-1-(4-fluorophenyl)-1H-imidazol-2-yl}thio)methyl]-3,5-difluorobenzoic acid], the EC50 in test [1] (setting [3]) and in test [2] (setting [4]) was less than 100 nM in each case.

Turning to `COc1cc(-n2c(C(C)(C)c3ccc(Cl)c(Cl)c3)cnc2SCc2c(F)cc(C(=O)O)cc2Cl)ccc1F` [3-chloro-4-[({5-[1-(3,4-dichlorophenyl)-1-methylethyl]-1-[4-fluoro-3-(methyloxy)phenyl]-1H-imidazol-2-yl}thio)methyl]-5-fluorobenzoic acid], the EC50 in test [1] (setting [3]) and in test [2] (setting [4]) was less than 100 nM in each case.

In the case of `CC(C)(c1ccc(Cl)c(Cl)c1)c1cnc(SCc2ccc(Cl)c(-c3nnn[nH]3)c2)n1-c1ccc(F)cc1` [5-{2-chloro-5-[({5-[1-(3,4-dichlorophenyl)-1-methylethyl]-1-(4-fluorophenyl)-1H-imidazol-2-yl}thio)methyl]phenyl}-1H-tetrazole], the EC50 in test [1] (setting [3]) and in test [2] (setting [4]) was 100 to 1000 nM throughout.

Turning to `CC(C)(c1ccc(Cl)c(Cl)c1)c1cnc(S(=O)(=O)NCc2ccc(F)cc2Cl)n1-c1ccc(F)cc1` [N-[(2-chloro-4-fluorophenyl)methyl]-5-[1-(3,4-dichlorophenyl)-1-methylethyl]-1-(4-fluorophenyl)-1H-imidazole-2-sulfonamide], the EC50 in test [1] (setting [3]) was 100 to 1000 nM; in test [2] (setting [4]), less than 100 nM.

For the molecule `COc1cc(C(C)(C)c2cnc(SCc3ccc(F)c(S(N)(=O)=O)c3)n2-c2ccc(F)cc2)ccc1Cl` [5-({[5-{1-[4-chloro-3-(methyloxy)phenyl]-1-methylethyl}-1-(4-fluorophenyl)-1H-imidazol-2-yl]thio}methyl)-2-fluorobenzenesulfonamide], the half-maximal effective concentration (EC50) in test [1] (setting [3]) and in test [2] (setting [4]) was less than 100 nM in each case.

For the molecule `COc1cc(C(C)(C)c2cnc(SCc3c(F)cccc3Cl)n2-c2ccc(F)cc2)ccc1Cl` [2-{[(2-chloro-6-fluorophenyl)methyl]thio}-5-{1-[4-chloro-3-(methyloxy)phenyl]-1-methylethyl}-1-(4-fluorophenyl)-1H-imidazole], the EC50 in test [1] (setting [3]) and in test [2] (setting [4]) was less than 100 nM in each case.

Take `CC(C)(c1ccc(Cl)c(Cl)c1)c1cnc(SCc2ccc(C(=O)O)cc2Cl)n1-c1ccc(F)cc1` [3-chloro-4-[({5-[1-(3,4-dichlorophenyl)-1-methylethyl]-1-(4-fluorophenyl)-1H-imidazol-2-yl}thio)methyl]benzoic acid]: the EC50 in test [1] (setting [3]) and in test [2] (setting [4]) was 100 to 1000 nM throughout.

With `COc1cc(C(C)(C)c2cnc(SCc3ccc(S(=O)(=O)NC(=O)NC4CCCC4)cc3Cl)n2-c2ccc(F)cc2)ccc1Cl` [3-chloro-4-({[5-{1-[4-chloro-3-(methyloxy)phenyl]-1-methylethyl}-1-(4-fluorophenyl)-1H-imidazol-2-yl]thio}methyl)-N-[(cyclopentylamino)carbonyl] benzenesulfonamide], the EC50 in test [1] (setting [3]) and in test [2] (setting [4]) was less than 100 nM throughout.

Turning to `COc1cc(C(C)(C)c2cnc(SCc3cc(S(N)(=O)=O)c(F)cc3Cl)n2-c2ccc(F)cc2)ccc1Cl` [4-chloro-5-({[5-{1-[4-chloro-3-(methyloxy)phenyl]-1-methylethyl}-1-(4-fluorophenyl)-1H-imidazol-2-yl]thio}methyl)-2-fluorobenzenesulfonamide], the EC50 in test [1] (setting [3]) and in test [2] (setting [4]) was less than 100 nM each time.

For the molecule `COc1cc(C(C)(C)c2cnc(SCc3c(F)cc(C(=O)Nc4nnn[nH]4)cc3Cl)n2-c2ccc(F)cc2)ccc1Cl` [3-chloro-4-({[5-{1-[4-chloro-3-(methyloxy)phenyl]-1-methylethyl}-1-(4-fluorophenyl)-1H-imidazol-2-yl]thio}methyl)-5-fluoro-N-1H-tetrazol-5-ylbenzamide], the EC50 in test [1] (setting [3]) and in test [2] (setting [4]) was less than 100 nM each time.

For the molecule `COc1ccc(C(C)(C)c2cnc(SCc3c(F)cc(C(=O)O)cc3F)n2-c2ccc(F)cc2)cc1Cl` [4-({[5-{1-[3-chloro-4-(methyloxy)phenyl]-1-methylethyl}-1-(4-fluorophenyl)-1H-imidazol-2-yl]thio}methyl)-3,5-difluorobenzoic acid], the half-maximal effective concentration (EC50) in test [1] (setting [3]) and in test [2] (setting [4]) was less than 100 nM throughout.

On to `CC(C)(c1ccc(Cl)c(Cl)c1)c1cnc(CNC2CCN(S(C)(=O)=O)CC2)n1-c1ccc(F)cc1` [N-({5-[1-(3,4-dichlorophenyl)-1-methylethyl]-1-(4-fluorophenyl)-1H-imidazol-2-yl}methyl)-1-(methylsulfonyl)piperidin-4-amine], for which the EC50 in test [1] (setting [3]) and in test [2] (setting [4]) was 1000 to 10000 nM each time.
